This is an account of results in patent publication US20230399312A1, “SUBSTITUTED PYRIMIDINES AND METHODS OF USE” (THERAVANCE BIOPHARMA R&D IP, LLC, priority 2020, published 2023).

A value given as a limit tells only on which side of the number the result lay.

Experiment [1] deals with T1, recombinant human ALK5 (TGF-βR1) protein (Homo sapiens, UniProt P36897).
T1 construct: purchased Life Technologies PR9075A
T1 sequence (P36897 34-503): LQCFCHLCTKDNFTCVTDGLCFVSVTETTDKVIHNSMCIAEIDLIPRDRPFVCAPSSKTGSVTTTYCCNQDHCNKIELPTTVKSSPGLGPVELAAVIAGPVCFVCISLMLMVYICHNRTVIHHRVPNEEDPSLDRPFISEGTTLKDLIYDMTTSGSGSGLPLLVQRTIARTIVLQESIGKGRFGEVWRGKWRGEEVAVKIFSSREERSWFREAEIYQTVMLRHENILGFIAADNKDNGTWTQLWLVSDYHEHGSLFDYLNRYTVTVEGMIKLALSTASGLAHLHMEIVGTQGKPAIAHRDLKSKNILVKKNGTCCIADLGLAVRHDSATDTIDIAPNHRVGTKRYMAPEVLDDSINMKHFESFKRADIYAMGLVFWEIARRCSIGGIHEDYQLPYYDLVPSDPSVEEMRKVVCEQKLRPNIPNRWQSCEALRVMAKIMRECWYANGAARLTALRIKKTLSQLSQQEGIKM
The experiment is described as follows: Biochemical ALK5 (TGF-βR1) assay to measure pKi (LANCE Ultra ULight kinase assay). As to conditions: apparent pKi, converted from pIC50 by Cheng-Prusoff. An outline of the steps:
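Read-out was LANCE Ultra TR-FRET with a europium anti-phospho-Topo IIα Thr1342 antibody after EDTA quench. Kinase reaction ran 60 min at 37 °C with ATP added from a 125 μM 5× stock, after 60 min compound–enzyme equilibration at room temperature. Values are pKi from Cheng-Prusoff conversion of fitted pIC50.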
Background: In TR-FRET formats the signal depends on donor and acceptor labels being close together.

For experiment [2], the system named is TGF-β-stimulated SMAD3 phosphorylation in BEAS-2B cells. The experiment is described as follows: Cellular ALK5 potency assay, inhibition of TGF-β stimulated pSMAD3 formation in BEAS-2B cells. As to conditions: Homo sapiens, pSMAD3, TGF-β 10 ng/mL, read-out: BEAS2B pIC50 (converted). Type of experiment: cell-based. In a few lines:
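Cells were seeded overnight, rinsed into HEPES/BSA-supplemented HBSS, and dosed with serially diluted compound for 1 h at 37 °C, 5% CO2. TGF-β stimulation (10 ng/mL final) followed for 30 min, then lysis and AlphaLISA pSMAD3 measurement; potency reported as pIC50.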

For the compound `Cc1cccc(-c2nccc(Nc3ccnc(Nc4ccc(CN5CCC[C@@H](C(=O)OCC6CN(C)C6)C5)cc4)n3)n2)n1` [Compound 182, (1-methylazetidin-3-yl)methyl (3R)-1-[[4-[[4-[[2-(6-methyl-2-pyridyl)pyrimidin-4-yl]amino]pyrimidin-2-yl]amino]phenyl]methyl] piperidine-3-carboxylate], the Ki in experiment [1] is 0.0398 to 0.316 nM. The IC50 in experiment [2] was 25.1 to 158 nM.
In the case of `Cc1cccc(-c2nccc(Nc3ccnc(Nc4ccc(CN5CCN[C@@H](CO)C5)cc4)n3)n2)n1` [Compound 183, [(2R)-4-[[4-[[4-[[2-(6-methyl-2-pyridyl)pyrimidin-4-yl]amino]pyrimidin-2-yl]amino]phenyl]methyl]piperazin-2-yl]methanol], the Ki in experiment [1] was 0.0398 to 0.316 nM. Also, the IC50 in experiment [2] is 25.1 to 158 nM.
Taken in the same sequence, the figures for `Cc1cccc(-c2nccc(Nc3ccnc(Nc4cc(F)c(NC(=O)C5CCNCC5)c(Cl)c4)n3)n2)n1` [Compound 184, N-[2-chloro-6-fluoro-4-[[4-[[2-(6-methyl-2-pyridyl)pyrimidin-4-yl]amino]pyrimidin-2-yl]amino]phenyl]piperidine-4-carboxamide] were 0.0398 to 0.316 nM and 25.1 to 158 nM.
The matching figures for `Cc1cccc(-c2nccc(Nc3ccnc(Nc4ccc(N5CCC(C(=O)O[C@H]6CCNC6)CC5)cc4)n3)n2)n1` [Compound 185, [(3S)-pyrrolidin-3-yl] 1-[4-[[4-[[2-(6-methyl-2-pyridyl)pyrimidin-4-yl]amino]pyrimidin-2-yl]amino]phenyl]piperidine-4-carboxylate]: 0.0398 to 0.316 nM and 25.1 to 158 nM.
Take `Cc1cccc(-c2nccc(Nc3ccnc(Nc4ccc(N5CC(CN)C5)cc4)n3)n2)n1` [Compound 186, N2-[4-[3-(aminomethyl)azetidin-1-yl]phenyl]-N4-[2-(6-methyl-2-pyridyl)pyrimidin-4-yl]pyrimidine-2,4-diamine]: the Ki in experiment [1] is 0.0398 to 0.316 nM. Besides, the IC50 in experiment [2] is 25.1 to 158 nM.
The matching figures for `Cc1cccc(-c2nccc(Nc3ccnc(Nc4ccc(CN)cc4)n3)n2)n1` [Compound 187, N2-[4-(aminomethyl)phenyl]-N4-[2-(6-methyl-2-pyridyl)pyrimidin-4-yl]pyrimidine-2,4-diamine]: 0.0398 to 0.316 nM and 25.1 to 158 nM.
For the compound `Cc1cccc(-c2nccc(Nc3ccnc(Nc4csc(C(=O)N5CCNCC5)c4)n3)n2)n1` [Compound 188, [4-[[4-[[2-(6-methyl-2-pyridyl)pyrimidin-4-yl]amino]pyrimidin-2-yl]amino]-2-thienyl]-piperazin-1-yl-methanone], the Ki in experiment [1] is at most 0.0316 nM. Further, the IC50 in experiment [2] is 25.1 to 158 nM.
The matching figures for `Cc1cccc(-c2nccc(Nc3ccnc(Nc4ccc(N5CCN(C(C)C)CC5)cc4)n3)n2)n1` [Compound 189, N2-[4-(4-isopropylpiperazin-1-yl)phenyl]-N4-[2-(6-methyl-2-pyridyl)pyrimidin-4-yl]pyrimidine-2,4-diamine]: at most 0.0316 nM and 25.1 to 158 nM.
Regarding `CC(=O)N1CCN(c2cccc(Nc3nccc(Nc4ccnc(-c5cccc(C)n5)n4)n3)c2)CC1` [Compound 190, 1-[4-[3-[[4-[[2-(6-methyl-2-pyridyl)pyrimidin-4-yl]amino]pyrimidin-2-yl]amino]phenyl]piperazin-1-yl]ethanone], in experiment [1], the Ki was 0.0398 to 0.316 nM. Also, the IC50 in experiment [2] is 25.1 to 158 nM.
On to `Cc1cccc(-c2nccc(Nc3ccnc(Nc4cc(N)c5c(c4)OCCO5)n3)n2)n1` [Compound 191, N2-(5-amino-2,3-dihydro-1,4-benzodioxin-7-yl)-N4-[2-(6-methyl-2-pyridyl)pyrimidin-4-yl]pyrimidine-2,4-diamine], for which, in experiment [1], the Ki was 0.398 to 3.16 nM. Moreover, the IC50 in experiment [2] was 25.1 to 158 nM.
Taken in the same sequence, the figures for `Cc1cccc(-c2nccc(Nc3ccnc(Nc4ccc(C5=CCNCC5)cc4)n3)n2)n1` [Compound 193, N4-[2-(6-methyl-2-pyridyl)pyrimidin-4-yl]-N2-[4-(1,2,3,6-tetrahydropyridin-4-yl)phenyl]pyrimidine-2,4-diamine] were 0.0398 to 0.316 nM and at most 20 nM.
On to `Cc1cccc(-c2nccc(Nc3ccnc(Nc4ccc(N5CCC(NCC(C)C)CC5)cc4)n3)n2)n1` [Compound 194, N2-[4-[4-(isobutylamino)-1-piperidyl]phenyl]-N4-[2-(6-methyl-2-pyridyl)pyrimidin-4-yl]pyrimidine-2,4-diamine], for which the Ki in experiment [1] is 0.0398 to 0.316 nM. Moreover, the IC50 in experiment [2] is 25.1 to 158 nM.
The matching figures for `Cc1cccc(-c2nccc(Nc3ccnc(Nc4ccc(CN5CCC(C(=O)O[C@@H]6CCN(C)C6)C5)cc4)n3)n2)n1` (stereo partly drawn) [Compound 195, [(3R)-1-methylpyrrolidin-3-yl] 1-[[4-[[4-[[2-(6-methyl-2-pyridyl)pyrimidin-4-yl]amino]pyrimidin-2-yl]amino]phenyl]methyl] pyrrolidine-3-carboxylate]: 0.0398 to 0.316 nM and 25.1 to 158 nM.
The matching figures for `Cc1cccc(-c2nccc(Nc3ccnc(Nc4ccc(N5CCCNCC5)cc4)n3)n2)n1` [Compound 196, N2-[4-(1,4-diazepan-1-yl)phenyl]-N4-[2-(6-methyl-2-pyridyl)pyrimidin-4-yl]pyrimidine-2,4-diamine]: 0.0398 to 0.316 nM and 25.1 to 158 nM.
For `Cc1cccc(-c2nccc(Nc3ccnc(Nc4ccc(CN5C6CCC5CNC6)cc4)n3)n2)n1` [Compound 197, N2-[4-(3,8-diazabicyclo[3.2.1]octan-8-ylmethyl)phenyl]-N4-[2-(6-methyl-2-pyridyl)pyrimidin-4-yl]pyrimidine-2,4-diamine], the Ki in experiment [1] is 0.0398 to 0.316 nM. Also, in experiment [2], the IC50 is 25.1 to 158 nM.
Taken in the same sequence, the figures for `Cc1cccc(-c2nccc(Nc3ccnc(Nc4ccc5c(c4)CN(C(C)C)CC5)n3)n2)n1` [Compound 198, N2-(2-isopropyl-3,4-dihydro-1H-isoquinolin-7-yl)-N4-[2-(6-methyl-2-pyridyl)pyrimidin-4-yl]pyrimidine-2,4-diamine] were 0.0398 to 0.316 nM and 25.1 to 158 nM.
For the compound `Cc1cccc(-c2nccc(Nc3ccnc(Nc4ccc(NC5CNC5)cc4)n3)n2)n1` [Compound 199, N2-[4-(azetidin-3-ylamino)phenyl]-N4-[2-(6-methyl-2-pyridyl)pyrimidin-4-yl]pyrimidine-2,4-diamine], the Ki in experiment [1] is 0.0398 to 0.316 nM. In addition, the IC50 in experiment [2] is 25.1 to 158 nM.
Consider `Cc1cccc(-c2nccc(Nc3ccnc(Nc4ccc(CN5CCN[C@@H](C(=O)O)C5)cc4)n3)n2)n1` [Compound 200, (2R)-4-[[4-[[4-[[2-(6-methyl-2-pyridyl)pyrimidin-4-yl]amino]pyrimidin-2-yl]amino]phenyl]methyl] piperazine-2-carboxylic acid], for which the Ki in experiment [1] was 0.0398 to 0.316 nM. In addition, the IC50 in experiment [2] is 200 to 1260 nM.
Taken in the same sequence, the figures for `COC(=O)C1CN(Cc2ccc(Nc3nccc(Nc4ccnc(-c5cccc(C)n5)n4)n3)cc2)CCN1C` (stereo not drawn) [Compound 201, methyl 1-methyl-4-[[4-[[4-[[2-(6-methyl-2-pyridyl)pyrimidin-4-yl]amino]pyrimidin-2-yl]amino]phenyl]methyl] piperazine-2-carboxylate] were 0.398 to 3.16 nM and 25.1 to 158 nM.
As to `Cc1cccc(-c2nccc(Nc3ccnc(Nc4ccc(N(C)CC5CNC5)cc4)n3)n2)n1` [Compound 202, N2-(4-((azetidin-3-ylmethyl)(methyl)amino)phenyl)-N4-(2-(6-methylpyridin-2-yl)pyrimidin-4-yl)pyrimidine-2,4-diamine], in experiment [1], the Ki is 0.0398 to 0.316 nM. Further, the IC50 in experiment [2] was 25.1 to 158 nM.
Taken in the same sequence, the figures for `Cc1cccc(-c2nccc(Nc3ccnc(Nc4cccc(NC(=O)C5(O)CCNC5)c4)n3)n2)n1` (stereo not drawn) [Compound 203, 3-hydroxy-N-[3-[[4-[[2-(6-methyl-2-pyridyl)pyrimidin-4-yl]amino]pyrimidin-2-yl]amino]phenyl]pyrrolidine-3-carboxamide] were 0.0398 to 0.316 nM and at most 20 nM.
The matching figures for `COC(=O)C1CNCCN1c1ccc(Nc2nccc(Nc3ccnc(-c4cccc(C)n4)n3)n2)cc1` (stereo not drawn) [Compound 204, methyl 1-[4-[[4-[[2-(6-methyl-2-pyridyl)pyrimidin-4-yl]amino]pyrimidin-2-yl]amino]phenyl]piperazine-2-carboxylate]: 0.0398 to 0.316 nM and 25.1 to 158 nM.
Take `Cc1cccc(-c2nccc(Nc3ccnc(Nc4ccc(N5CCNCC5)c(CC(=O)OCC(C)C)c4)n3)n2)n1` [Compound 205, isobutyl 2-[5-[[4-[[2-(6-methyl-2-pyridyl)pyrimidin-4-yl]amino]pyrimidin-2-yl]amino]-2-piperazin-1-yl-phenyl]acetate]: the Ki in experiment [1] is 0.0398 to 0.316 nM. The IC50 in experiment [2] was 25.1 to 158 nM.
The matching figures for `Cc1cccc(-c2nccc(Nc3ccnc(Nc4csc(NC(=O)C5(CO)CNC5)c4)n3)n2)n1` [Compound 206, 3-(hydroxymethyl)-N-[4-[[4-[[2-(6-methyl-2-pyridyl)pyrimidin-4-yl]amino]pyrimidin-2-yl]amino]-2-thienyl]azetidine-3-carboxamide]: 0.0398 to 0.316 nM and 200 to 1260 nM.
